Assay results published in the kinase profiling compilation of Christmann-Franck et al. (2016).

How the values were obtained:
Assay in all cases: KINOMEscan competition binding
Settings in all cases: compound 10.0 µM
MAPK12 (human) = MAPK12 (human) (UniProt P53778)
FGFR4 (human) = FGFR4 (human) (UniProt P22455)
PRKCH (human) = PRKCH (human) (UniProt P24723)
CSNK2A2 (human) = CSNK2A2 (human) (UniProt P19784)
PAK3 (human) = PAK3 (human) (UniProt O75914)
PRPF4B (human) = PRPF4B (human) (UniProt Q13523)
Sequence of PRPF4B (human) (Q13523 whole entry, looked up): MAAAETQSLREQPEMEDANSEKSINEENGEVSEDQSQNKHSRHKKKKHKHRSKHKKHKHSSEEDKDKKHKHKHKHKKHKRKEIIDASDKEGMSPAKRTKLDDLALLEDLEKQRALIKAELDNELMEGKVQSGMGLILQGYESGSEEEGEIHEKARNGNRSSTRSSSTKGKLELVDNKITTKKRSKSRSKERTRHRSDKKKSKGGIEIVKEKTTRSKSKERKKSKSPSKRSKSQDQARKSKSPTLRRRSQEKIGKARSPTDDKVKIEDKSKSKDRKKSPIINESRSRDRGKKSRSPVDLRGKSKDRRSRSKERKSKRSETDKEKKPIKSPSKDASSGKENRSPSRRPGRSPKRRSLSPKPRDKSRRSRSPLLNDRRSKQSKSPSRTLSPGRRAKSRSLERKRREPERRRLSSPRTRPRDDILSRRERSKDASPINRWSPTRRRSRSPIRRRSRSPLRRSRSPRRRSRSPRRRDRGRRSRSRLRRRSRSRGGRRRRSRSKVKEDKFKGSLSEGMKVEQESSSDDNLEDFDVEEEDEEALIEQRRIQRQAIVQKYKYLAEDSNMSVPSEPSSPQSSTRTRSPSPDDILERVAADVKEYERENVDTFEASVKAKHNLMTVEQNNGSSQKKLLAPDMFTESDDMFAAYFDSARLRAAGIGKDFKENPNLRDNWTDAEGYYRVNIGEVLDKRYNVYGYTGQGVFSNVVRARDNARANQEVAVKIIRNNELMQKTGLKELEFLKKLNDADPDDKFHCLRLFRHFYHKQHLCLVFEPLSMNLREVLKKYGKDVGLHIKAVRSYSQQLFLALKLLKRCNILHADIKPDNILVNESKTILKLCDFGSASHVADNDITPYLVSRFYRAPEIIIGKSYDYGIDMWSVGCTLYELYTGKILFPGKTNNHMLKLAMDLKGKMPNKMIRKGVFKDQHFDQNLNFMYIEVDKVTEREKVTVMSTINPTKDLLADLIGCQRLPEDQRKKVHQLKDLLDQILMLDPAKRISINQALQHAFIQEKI

MAPK7 (human) = MAPK7 (human) (UniProt Q13164)
Sequence of MAPK7 (human) (Q13164 whole entry, looked up): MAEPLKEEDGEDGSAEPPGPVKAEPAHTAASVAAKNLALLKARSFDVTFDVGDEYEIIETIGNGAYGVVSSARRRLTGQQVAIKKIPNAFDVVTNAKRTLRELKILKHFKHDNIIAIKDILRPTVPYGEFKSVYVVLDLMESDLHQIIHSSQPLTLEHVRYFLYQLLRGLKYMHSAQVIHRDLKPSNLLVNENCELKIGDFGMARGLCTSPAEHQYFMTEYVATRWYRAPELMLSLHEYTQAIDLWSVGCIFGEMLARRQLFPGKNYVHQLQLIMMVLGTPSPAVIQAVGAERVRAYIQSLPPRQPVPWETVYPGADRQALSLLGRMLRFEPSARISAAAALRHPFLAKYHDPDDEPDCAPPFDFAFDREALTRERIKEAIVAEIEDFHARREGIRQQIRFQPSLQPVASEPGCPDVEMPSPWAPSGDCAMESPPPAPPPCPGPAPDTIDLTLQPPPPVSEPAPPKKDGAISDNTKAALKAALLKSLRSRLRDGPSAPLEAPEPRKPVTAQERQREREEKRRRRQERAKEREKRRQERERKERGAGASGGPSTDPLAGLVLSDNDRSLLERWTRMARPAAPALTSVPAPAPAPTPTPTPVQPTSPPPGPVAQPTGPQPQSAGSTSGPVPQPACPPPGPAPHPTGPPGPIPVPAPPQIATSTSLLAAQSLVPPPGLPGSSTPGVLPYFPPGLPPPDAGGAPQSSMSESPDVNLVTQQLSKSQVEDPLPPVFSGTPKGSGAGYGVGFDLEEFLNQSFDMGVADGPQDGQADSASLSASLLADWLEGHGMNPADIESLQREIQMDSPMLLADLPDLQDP

MYLK (human) = MYLK (human) (UniProt Q15746)
CSNK1G3 (human) = CSNK1G3 (human) (UniProt Q9Y6M4)
RPS6KA2 KD2 (human) = RPS6KA2 KD2 (human) (UniProt Q15349)
MAP3K9 (human) = MAP3K9 (human) (UniProt P80192)
Sequence of MAP3K9 (human) (P80192 whole entry, looked up): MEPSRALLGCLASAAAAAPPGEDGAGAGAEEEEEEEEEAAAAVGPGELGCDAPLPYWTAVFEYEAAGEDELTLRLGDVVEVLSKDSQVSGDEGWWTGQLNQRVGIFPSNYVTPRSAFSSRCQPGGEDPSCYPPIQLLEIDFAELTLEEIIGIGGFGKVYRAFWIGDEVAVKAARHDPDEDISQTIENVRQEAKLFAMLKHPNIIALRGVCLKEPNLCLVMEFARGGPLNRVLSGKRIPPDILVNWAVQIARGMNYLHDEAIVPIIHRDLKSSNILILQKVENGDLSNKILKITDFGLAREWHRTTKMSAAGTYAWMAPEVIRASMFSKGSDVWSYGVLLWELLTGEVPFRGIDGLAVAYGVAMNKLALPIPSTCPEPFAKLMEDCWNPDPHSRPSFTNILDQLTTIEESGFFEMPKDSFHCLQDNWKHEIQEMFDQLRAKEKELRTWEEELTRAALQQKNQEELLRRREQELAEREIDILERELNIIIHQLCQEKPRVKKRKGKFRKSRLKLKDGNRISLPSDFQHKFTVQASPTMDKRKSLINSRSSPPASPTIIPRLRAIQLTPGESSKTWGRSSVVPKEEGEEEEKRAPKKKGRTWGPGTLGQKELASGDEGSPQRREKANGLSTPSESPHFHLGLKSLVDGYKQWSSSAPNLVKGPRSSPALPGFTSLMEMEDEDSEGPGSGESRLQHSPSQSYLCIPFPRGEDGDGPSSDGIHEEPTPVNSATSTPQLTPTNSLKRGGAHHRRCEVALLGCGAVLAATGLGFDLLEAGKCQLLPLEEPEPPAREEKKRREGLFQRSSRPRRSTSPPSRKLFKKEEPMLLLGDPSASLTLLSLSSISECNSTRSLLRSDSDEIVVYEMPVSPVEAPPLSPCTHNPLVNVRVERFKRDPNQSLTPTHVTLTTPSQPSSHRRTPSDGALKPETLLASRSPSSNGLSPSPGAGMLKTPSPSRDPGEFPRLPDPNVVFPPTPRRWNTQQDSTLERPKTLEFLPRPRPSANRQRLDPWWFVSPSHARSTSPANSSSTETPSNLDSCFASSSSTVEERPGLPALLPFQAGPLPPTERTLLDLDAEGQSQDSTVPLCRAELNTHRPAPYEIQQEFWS

SBK1 (human) = SBK1 (human) (UniProt Q52WX2)
Sequence of SBK1 (human) (Q52WX2 whole entry, looked up): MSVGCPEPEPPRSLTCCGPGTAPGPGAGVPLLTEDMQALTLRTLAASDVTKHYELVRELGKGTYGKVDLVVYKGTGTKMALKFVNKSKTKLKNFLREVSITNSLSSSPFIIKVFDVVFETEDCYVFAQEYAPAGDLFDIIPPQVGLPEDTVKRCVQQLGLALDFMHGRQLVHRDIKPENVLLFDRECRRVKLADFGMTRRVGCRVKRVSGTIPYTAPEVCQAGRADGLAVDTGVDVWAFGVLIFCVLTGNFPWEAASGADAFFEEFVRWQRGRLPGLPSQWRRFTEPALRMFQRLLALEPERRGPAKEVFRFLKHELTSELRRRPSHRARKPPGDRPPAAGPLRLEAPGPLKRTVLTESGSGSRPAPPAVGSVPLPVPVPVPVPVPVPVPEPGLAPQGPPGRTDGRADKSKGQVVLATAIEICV

[1] = tested on: PIK3CA (human), P42336 [Q546K]
MYLK2 (human) = MYLK2 (human) (UniProt Q9H1R3)
CDK19 (human) = CDK19 (human) (UniProt Q9BWU1)
NTRK1 (human) = NTRK1 (human) (UniProt P04629)
ROS1 (human) = ROS1 (human) (UniProt P08922)
PKMYT1 (human) = PKMYT1 (human) (UniProt Q99640)
FLT4 (human) = FLT4 (human) (UniProt P35916)
TNIK (human) = TNIK (human) (UniProt Q9UKE5)
MAPKAPK2 (human) = MAPKAPK2 (human) (UniProt P49137)
CSNK1E (human) = CSNK1E (human) (UniProt P49674)
LIMK1 (human) = LIMK1 (human) (UniProt P53667)
OXSR1 (human) = OXSR1 (human) (UniProt O95747)
STK38L (human) = STK38L (human) (UniProt Q9Y2H1)
MELK (human) = MELK (human) (UniProt Q14680)
EPHA5 (human) = EPHA5 (human) (UniProt P54756)
PDGFRB (human) = PDGFRB (human) (UniProt P09619)
MARK2 (human) = MARK2 (human) (UniProt Q7KZI7)
CaMK1 (human) = CaMK1 (human) (UniProt Q14012)
Sequence of CaMK1 (human) (Q14012 whole entry, looked up): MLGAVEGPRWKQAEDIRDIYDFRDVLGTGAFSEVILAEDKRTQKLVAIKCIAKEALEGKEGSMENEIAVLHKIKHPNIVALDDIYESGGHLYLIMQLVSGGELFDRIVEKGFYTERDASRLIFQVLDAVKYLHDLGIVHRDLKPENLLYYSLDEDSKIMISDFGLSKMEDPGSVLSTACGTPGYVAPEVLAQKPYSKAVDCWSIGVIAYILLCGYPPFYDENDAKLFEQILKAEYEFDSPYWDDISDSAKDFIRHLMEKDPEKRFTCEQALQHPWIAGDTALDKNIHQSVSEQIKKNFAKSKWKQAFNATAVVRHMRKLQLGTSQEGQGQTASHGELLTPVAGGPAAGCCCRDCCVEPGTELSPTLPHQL

[2] = tested on: KIT (human), P10721 [V559D/T670I]
[3] = tested on: KIT (human), P10721 [V559D]
RIOK2 (human) = RIOK2 (human) (UniProt Q9BVS4)
Sequence of RIOK2 (human) (Q9BVS4 whole entry, looked up): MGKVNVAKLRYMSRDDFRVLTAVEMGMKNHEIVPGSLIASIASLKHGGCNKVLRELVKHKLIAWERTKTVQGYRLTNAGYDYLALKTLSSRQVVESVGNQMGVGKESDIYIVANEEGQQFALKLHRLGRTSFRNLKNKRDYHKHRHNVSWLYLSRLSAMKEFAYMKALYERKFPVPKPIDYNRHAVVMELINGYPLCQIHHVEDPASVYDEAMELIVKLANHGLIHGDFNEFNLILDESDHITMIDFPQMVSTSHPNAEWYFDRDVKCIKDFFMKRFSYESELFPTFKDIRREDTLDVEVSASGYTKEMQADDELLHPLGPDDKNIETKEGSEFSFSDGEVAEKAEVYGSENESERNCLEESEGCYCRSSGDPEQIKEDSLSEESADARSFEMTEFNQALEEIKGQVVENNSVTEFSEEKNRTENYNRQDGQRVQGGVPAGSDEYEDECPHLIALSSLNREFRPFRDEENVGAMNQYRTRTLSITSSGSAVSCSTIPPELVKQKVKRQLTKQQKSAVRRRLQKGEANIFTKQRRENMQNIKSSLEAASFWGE

SRPK3 (human) = SRPK3 (human) (UniProt Q9UPE1)
NEK5 (human) = NEK5 (human) (UniProt Q6P3R8)
Sequence of NEK5 (human) (Q6P3R8 whole entry, looked up): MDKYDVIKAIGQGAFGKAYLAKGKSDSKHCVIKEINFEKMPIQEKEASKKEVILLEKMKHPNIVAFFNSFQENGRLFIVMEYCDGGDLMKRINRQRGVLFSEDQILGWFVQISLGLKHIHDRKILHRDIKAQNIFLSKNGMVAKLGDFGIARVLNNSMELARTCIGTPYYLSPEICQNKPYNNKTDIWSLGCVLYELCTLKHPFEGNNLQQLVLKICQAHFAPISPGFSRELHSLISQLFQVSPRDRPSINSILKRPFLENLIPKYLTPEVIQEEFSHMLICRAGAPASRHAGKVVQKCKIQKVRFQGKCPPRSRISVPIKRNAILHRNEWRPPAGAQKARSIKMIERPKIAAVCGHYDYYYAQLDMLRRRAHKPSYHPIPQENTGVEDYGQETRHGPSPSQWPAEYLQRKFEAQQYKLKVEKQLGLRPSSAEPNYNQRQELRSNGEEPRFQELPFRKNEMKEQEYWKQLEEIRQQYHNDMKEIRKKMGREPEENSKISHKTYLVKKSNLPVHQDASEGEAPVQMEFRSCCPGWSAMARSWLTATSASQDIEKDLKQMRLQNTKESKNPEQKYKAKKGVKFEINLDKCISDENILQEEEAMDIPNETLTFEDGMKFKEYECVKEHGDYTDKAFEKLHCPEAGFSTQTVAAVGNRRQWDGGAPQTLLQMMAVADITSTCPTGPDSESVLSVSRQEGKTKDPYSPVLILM

MAPK8 (human) = MAPK8 (human) (UniProt P45983)
RIOK1 (human) = RIOK1 (human) (UniProt Q9BRS2)
STK32A (human) = STK32A (human) (UniProt Q8WU08)
SNRK (human) = SNRK (human) (UniProt Q9NRH2)

Structure (SMILES)	kinase still bound, per cent of control (MAPK12 (human)) [%]	kinase still bound, per cent of control (FGFR4 (human)) [%]	kinase still bound, per cent of control (PRKCH (human)) [%]	kinase still bound, per cent of control (CSNK2A2 (human)) [%]	kinase still bound, per cent of control (PAK3 (human)) [%]	kinase still bound, per cent of control (PRPF4B (human)) [%]	kinase still bound, per cent of control (MAPK7 (human)) [%]	kinase still bound, per cent of control (MYLK (human)) [%]	kinase still bound, per cent of control (RPS6KA2 KD2 (human)) [%]	kinase still bound, per cent of control (MAP3K9 (human)) [%]	kinase still bound, per cent of control (SBK1 (human)) [%]	kinase still bound, per cent of control [1] [%]	kinase still bound, per cent of control (MYLK2 (human)) [%]	kinase still bound, per cent of control (CDK19 (human)) [%]	kinase still bound, per cent of control (ROS1 (human)) [%]	kinase still bound, per cent of control (PKMYT1 (human)) [%]	kinase still bound, per cent of control (FLT4 (human)) [%]	kinase still bound, per cent of control (TNIK (human)) [%]	kinase still bound, per cent of control (MAPKAPK2 (human)) [%]	kinase still bound, per cent of control (CSNK1E (human)) [%]	also measured
COc1cc(C(=O)NC2CCN(C)CC2)ccc1Nc1ncc2c(n1)N(C1CCCC1)CCC(=O)N2C(C)C	100	100	100	100	100	100	100	100	100	100	100	100	100	100	100	100	0	100	100	100	kinase still bound, per cent of control (CSNK1G3 (human)): 100%; kinase still bound, per cent of control (NTRK1 (human)): 100%; kinase still bound, per cent of control (LIMK1 (human)): 100%; kinase still bound, per cent of control (OXSR1 (human)): 100%; kinase still bound, per cent of control (STK38L (human)): 100%; kinase still bound, per cent of control (MELK (human)): 100%; kinase still bound, per cent of control (EPHA5 (human)): 100%; kinase still bound, per cent of control (PDGFRB (human)): 100%; kinase still bound, per cent of control (MARK2 (human)): 100%; kinase still bound, per cent of control (CaMK1 (human)): 100%; kinase still bound, per cent of control [2]: 100%; kinase still bound, per cent of control [3]: 100%; kinase still bound, per cent of control (RIOK2 (human)): 100%; kinase still bound, per cent of control (SRPK3 (human)): 100%; kinase still bound, per cent of control (NEK5 (human)): 100%; kinase still bound, per cent of control (MAPK8 (human)): 100%; kinase still bound, per cent of control (RIOK1 (human)): 100%
CCOc1cc2ncc(C#N)c(Nc3ccc(OCc4ccccn4)c(Cl)c3)c2cc1NC(=O)/C=C/CN(C)C	100	100	100	72	100	92	100	73	100	84	100	100	79	100	96	84	100	6	89	26	kinase still bound, per cent of control (NTRK1 (human)): 77%; kinase still bound, per cent of control (STK32A (human)): 77%; kinase still bound, per cent of control (LIMK1 (human)): 100%; kinase still bound, per cent of control (OXSR1 (human)): 54%; kinase still bound, per cent of control (STK38L (human)): 100%; kinase still bound, per cent of control (MELK (human)): 55%; kinase still bound, per cent of control (EPHA5 (human)): 100%; kinase still bound, per cent of control (PDGFRB (human)): 69%; kinase still bound, per cent of control (MARK2 (human)): 86%; kinase still bound, per cent of control (SNRK (human)): 51%; kinase still bound, per cent of control (CaMK1 (human)): 88%; kinase still bound, per cent of control [3]: 100%; kinase still bound, per cent of control (RIOK2 (human)): 53%; kinase still bound, per cent of control (SRPK3 (human)): 77%; kinase still bound, per cent of control (NEK5 (human)): 100%; kinase still bound, per cent of control (MAPK8 (human)): 16%; kinase still bound, per cent of control (RIOK1 (human)): 68%
OCCCNc1cc(-c2ccnc(Nc3cccc(Cl)c3)n2)ccn1	100	100	100	100	100	100	100	100	100	100	100	100	100	100	100	100	100	100	100	100	kinase still bound, per cent of control (CSNK1G3 (human)): 100%; kinase still bound, per cent of control (NTRK1 (human)): 100%; kinase still bound, per cent of control (LIMK1 (human)): 100%; kinase still bound, per cent of control (OXSR1 (human)): 100%; kinase still bound, per cent of control (STK38L (human)): 100%; kinase still bound, per cent of control (MELK (human)): 100%; kinase still bound, per cent of control (EPHA5 (human)): 100%; kinase still bound, per cent of control (PDGFRB (human)): 100%; kinase still bound, per cent of control (MARK2 (human)): 100%; kinase still bound, per cent of control (CaMK1 (human)): 100%; kinase still bound, per cent of control [2]: 100%; kinase still bound, per cent of control [3]: 100%; kinase still bound, per cent of control (RIOK2 (human)): 100%; kinase still bound, per cent of control (SRPK3 (human)): 100%; kinase still bound, per cent of control (NEK5 (human)): 100%; kinase still bound, per cent of control (MAPK8 (human)): 100%; kinase still bound, per cent of control (RIOK1 (human)): 100%
Cn1c(=O)n(-c2ccc(C(C)(C)C#N)cc2)c2c3cc(-c4cnc5ccccc5c4)ccc3ncc21	100	100	100	100	100	100	100	100	100	100	100	3.8	100	100	100	100	100	100	100	100	kinase still bound, per cent of control (CSNK1G3 (human)): 100%; kinase still bound, per cent of control (LIMK1 (human)): 100%; kinase still bound, per cent of control (OXSR1 (human)): 100%; kinase still bound, per cent of control (STK38L (human)): 100%; kinase still bound, per cent of control (MELK (human)): 100%; kinase still bound, per cent of control (EPHA5 (human)): 100%; kinase still bound, per cent of control (MARK2 (human)): 100%; kinase still bound, per cent of control (CaMK1 (human)): 100%; kinase still bound, per cent of control [2]: 100%; kinase still bound, per cent of control [3]: 100%; kinase still bound, per cent of control (RIOK2 (human)): 100%; kinase still bound, per cent of control (SRPK3 (human)): 100%; kinase still bound, per cent of control (NEK5 (human)): 100%; kinase still bound, per cent of control (MAPK8 (human)): 100%; kinase still bound, per cent of control (RIOK1 (human)): 100%
